The target of test [1] is T1, ENPP1 (Homo sapiens, UniProt P22413).
T1 sequence (P22413 1-925): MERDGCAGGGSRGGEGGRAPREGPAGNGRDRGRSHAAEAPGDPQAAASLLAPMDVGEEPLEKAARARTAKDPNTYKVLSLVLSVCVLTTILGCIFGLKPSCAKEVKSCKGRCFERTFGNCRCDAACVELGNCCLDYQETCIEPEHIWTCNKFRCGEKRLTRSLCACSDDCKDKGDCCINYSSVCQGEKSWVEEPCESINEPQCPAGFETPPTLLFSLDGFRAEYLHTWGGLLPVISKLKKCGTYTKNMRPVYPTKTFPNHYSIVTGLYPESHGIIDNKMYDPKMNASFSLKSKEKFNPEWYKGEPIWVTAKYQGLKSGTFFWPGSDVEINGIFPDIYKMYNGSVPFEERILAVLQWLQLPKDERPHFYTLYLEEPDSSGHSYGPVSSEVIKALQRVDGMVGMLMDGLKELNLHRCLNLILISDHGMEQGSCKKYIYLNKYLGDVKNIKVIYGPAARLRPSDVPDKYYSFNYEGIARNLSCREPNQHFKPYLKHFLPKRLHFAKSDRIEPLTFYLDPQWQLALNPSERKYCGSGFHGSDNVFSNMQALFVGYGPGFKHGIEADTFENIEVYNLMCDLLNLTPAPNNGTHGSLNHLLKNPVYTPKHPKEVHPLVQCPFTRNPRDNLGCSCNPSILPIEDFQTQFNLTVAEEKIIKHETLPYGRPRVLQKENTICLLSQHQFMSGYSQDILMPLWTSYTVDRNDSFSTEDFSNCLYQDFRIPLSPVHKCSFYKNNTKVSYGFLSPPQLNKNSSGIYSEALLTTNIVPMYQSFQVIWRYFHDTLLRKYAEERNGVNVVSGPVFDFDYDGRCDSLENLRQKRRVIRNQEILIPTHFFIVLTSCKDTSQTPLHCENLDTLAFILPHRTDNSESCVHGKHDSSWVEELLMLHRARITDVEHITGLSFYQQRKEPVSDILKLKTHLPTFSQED
The experiment in a line: Measurement of pNP-TMP hydrolysis by ENPP1. Type of test: biochemical. Conditions: substrate pNP-TMP, (S) 500 μM, KM 232 μM; Ki from IC50 by Cheng-Prusoff. On the procedure:
p-Nitrophenyl thymidine 5′-monophosphate (pNP-TMP) is a synthesized substrate for ENPP1. The ENPP1 enzyme activity assay with pNP-TMP substrate was conducted as follows:
Incubation of ENPP1 with compounds was set at 25° C. for 10 min.
Absorbance at 405 nm was recorded immediately in kinetic mode by PerkinElmer 2300 Enspire multimode plate reader.
For each inhibitor, the specific ENPP1 activity was calculated using the following equation: ENPP1 activity (pmol/min/μg)=Adjusted Vmax (OD405 nm/min)×conversion factor (pmol/OD405 nm)/amount of enzyme (μg)
Adjusted Vmax=V0×(Km+(S))/(S). […] V0=(OD405 nm with ENPP1−OD405 nm ENPP1 blank)/minutes. OD405 nm was plotted, with blank subtracted, against time (minutes), the initial linear rate is V0. […]
The slope is the conversion factor. The percent ENPP1 activity for each sample was calculated using the following equation:
% enzyme activity=sample enzyme activity/MAX Activity×100%.
To determine the IC50 for each compound, compound concentration values and percent enzyme activity values were inserted into GraphPad Prism (GraphPad Prism version 7.0 for Windows, GraphPad Software, La Jolla Calif. USA, www.graphpad.com), and Prism's Transform analysis was used to convert the x-axis values (compound concentration) to logarithms. A sigmoidal variable slope nonlinear regression analysis was performed using the following equation: Y=Bottom+(Top−Bottom)/(1+10^((Log IC50^−X)*HillSlope)).

Test [2] deals with T1, ENPP1. As to the kind of experiment: Measurement of 2′3′-cGAMP hydrolysis by ENPP1 (AMP-Glo).
Protocol: Then, 15 μl of the ENPP1/Compound incubation was transferred to the 200 μM 2′3′-cGAMP solution to initiate the reaction. The 30 μl mixture was incubated for 30 min at 25° C. […] After 30 min the reaction was stopped by heating at 90° C. for 3 min.
Third, now the Promega AMP-Glo kit was used to detect 5′-AMP production as a measurement of ENPP1 enzyme activity. To do this, 10 μl of the above mentioned 30 μl total reaction per sample was transferred into 384 well white solid assay plate for measurement of 5′-AMP production. For each well, 10 μl of AMP-Glo Reagent I was added, mixed well, and incubated for 1 hour at 25° C. At this time AMP detection solution was prepared and 20 μl was added per well, and the resulting solution was incubated for 1 hr at 25° C. Duplicates were run for each inhibitor concentration. Luminescence signal (relative luminescence units, RLU) was recorded using a PerkinElmer 2300 Enspire multimode plate reader.
IC50 values of compounds were determined by loading compound concentration data and percent inhibition values into GraphPad Prism (GraphPad Prism version 7.0 for Windows, GraphPad Software, La Jolla Calif. USA, www.graphpad.com) and conducted a Sigmoidal variable slope nonlinear regression fitting.
The next test concerns HGS tumor model. The experiment in a line: Anti-tumor activity in HGS tumor model. The format is in vivo. Conditions: animals treated with 20/kg of compound, day 42 after inoculation (vehicle 645).
Text: […]

pKi: −log10 of the molar value. Structures can show the parent of a compound that is named as a salt.

For the compound `COc1ccc2c(NCc3ccc(B(O)O)cc3)ncnc2c1` [compound 30, 4-(((7-methoxyquinazolin-4-yl)amino)methyl)phenylboronic acid], on ENPP1 [1], the pKi was more than 8.30.

`COc1cc2ncnc(NCc3ccc(B(O)O)cc3F)c2cc1OC` [compound 11, 4-(((6,7-dimethoxyquinazolin-4-yl)amino)methyl)-3-fluorophenylboronic acid formic acid salt] gave a pKi at ENPP1 [1] of more than 8.00.

The compound `COc1cc2ncnc(-c3ccc(COS(N)(=O)=O)cc3)c2cc1OC` [Cpd. 17, 4-(6,7-dimethoxyquinazolin-4-yl)benzyl sulfamate] showed a pKi on ENPP1 [1] of more than 9.00.

For the compound `COc1cc2ncnc(NCc3ccc(B(O)O)cn3)c2cc1OC` [compound 8, (6-(((6,7-dimethoxyquinazolin-4-yl)amino)methyl)pyridin-3-yl)boronic acid], the negative logarithm of the Ki (pKi) on ENPP1 [2] is more than 8.00.

`COc1cc2ncnc(NCc3ccc(P(=O)(O)O)cc3)c2cc1OC` [compound 13, (4-(((6,7-dimethoxyquinazolin-4-yl)amino)methyl)phenyl)phosphonic acid] gave a pKi on ENPP1 [2] of more than 8.30.

Consider `COc1cc2ncnc(NCc3ccc(B(O)O)cc3)c2cc1OC` [Cpd. 7, (4-(((6,7-dimethoxyquinazolin-4-yl)amino)methyl)phenyl)boronic acid formic acid salt], for which the pKi at ENPP1 [2] is more than 9.00; on ENPP1 [1] it was more than 8.00.

Compound `COc1cc2ncnc(OCc3ccc4c(c3)COB4O)c2cc1OC` [compound 21, 5-(((6,7-dimethoxyquinazolin-4-yl)oxy)methyl)-3H-2,1-benzoxaborol-1-lol] had a pKi on ENPP1 [2] of more than 8.00.

Compound `COc1cc2ncnc(N3CCC(CCCB(O)O)CC3)c2cc1OC` [Cpd. 3, (3-(1-(6,7-dimethoxyquinazolin-4-yl)piperidin-4-yl)propyl)boronic acid] had a pKi at ENPP1 [2] of more than 9.00.

In the case of `COc1cc2ncnc(NCc3cccc(B(O)O)c3)c2cc1OC` [compound 12, (3-(((6,7-dimethoxyquinazolin-4-yl)amino)methyl)phenyl)boronic acid], the figures for the pKi on ENPP1 [2] and at ENPP1 [1] were more than 9.00 and more than 8.00, respectively.

As to `COc1ccc2c(NCc3ccc(P(=O)(O)O)cc3)ncnc2c1` [compound 41, 4-(((7-methoxyquinazolin-4-yl)amino)methyl)phenylphosphonic acid formic acid salt], the pKi on ENPP1 [1] is more than 8.30.

For the compound `COc1cc2ncnc(OCc3ccc(B(O)O)cc3)c2cc1OC` [compound 19, (4-(((6,7-dimethoxyquinazolin-4-yl)oxy)methyl)phenyl)boronic acid], the pKi on ENPP1 [2] was more than 9.00; on ENPP1 [1] it was more than 8.30.

Consider `COc1cc2ncnc(Nc3ccc4c(c3)COB4O)c2cc1OC` [compound 10, 5-((6,7-dimethoxyquinazolin-4-yl)amino)-1,3-dihydro-2,1-benzoxaborol-1-ol], for which the pKi on ENPP1 [2] is more than 8.00.

`COc1cc2ncnc(NCc3c(F)cc(B(O)O)cc3F)c2cc1OC` [compound 24, 4-(((6,7-dimethoxyquinazolin-4-yl)amino)methyl)-3,5-difluorophenylboronic acid hydrochloride] had a pKi on ENPP1 [1] of more than 8.00.

The compound `COc1cc2ncnc(NCC3CCN(S(N)(=O)=O)CC3)c2cc1OC` [compound 18, 4-(((6,7-dimethoxyquinazolin-4-yl)amino)methyl)piperidine-1-sulfonamide] had a pKi at ENPP1 [2] of more than 8.30.

The compound `C=CC(=O)N1CCN(CCCn2c(=O)c(-c3c(Cl)c(OC)cc(OC)c3Cl)cc3cnc(NC)nc32)CC1` [8-(3-(4-acryloylpiperazin-1-yl)propyl)-6-(2,6-dichloro-3,5-dimethoxyphenyl)-2-(methylamino)pyrido(2,3-d)pyrimidin-7(8H)-one] came in with a tumor size in the test on HGS tumor model of 55 mm3.

With `COc1cc2ncnc(OCc3ccc4c(c3)B(O)OC4)c2cc1OC` [compound 20, 6-(((6,7-dimethoxyquinazolin-4-yl)oxy)methyl)-3H-2,1-benzoxaborol-1-ol], on ENPP1 [2], the pKi is more than 8.30.

On to `COc1cc2ncnc(N3CCC(CP(=O)(O)O)CC3)c2cc1OC` [Cpd. 4, ((1-(6,7-dimethoxyquinazolin-4-yl)piperidin-4-yl)methyl)phosphonic acid], for which the negative-log Ki (pKi) at ENPP1 [2] is more than 8.30.

Consider `COc1cc2ncnc(N3CCC(CCCP(=O)(O)O)CC3)c2cc1OC` [compound 6, (3-(1-(6,7-dimethoxyquinazolin-4-yl)piperidin-4-yl)propyl)phosphonic acid], for which the pKi is more than 9.00 at ENPP1 [2] and more than 8.30 on ENPP1 [1].

What is called pKi is the Ki on a negative log10 scale, so that one unit is a factor of ten.
